Assay results: PMC4335020, “Single Oral Dose Pharmacokinetics of Decursin and Decursinol Angelate in Healthy Adult Men and Women” (PLoS ONE, 2015)
Where two headings read alike, the source gives them in different places.

Assay: Single oral dose human plasma pharmacokinetics of D, DA and DOH after Cogni.Q
Format: in vivo
Conditions: for AUC(0-t) / Cmax / half-life / Tmax: human, plasma
From the text: Ten healthy male and 10 female subjects were recruited by public announcement in Amarillo, TX, from January 2013 to April 2013 (see Fig. 1 CONSORT diagram). The sample size for each gender was chosen without power calculation due to the lack of prior knowledge of PK parameter variance in humans. After receiving informed consent verbally and in writing, the health status of each candidate was confirmed by health questionnaire, plasma biochemistry (hepatic and renal functions), complete blood cell count (CBC), and a physical examination by a participating academic physician. Subjects with diabetes, or pregnant, perinatal and breastfeeding women were excluded. For the 48 hours preceding study visit until the final blood draw, all subjects were instructed to avoid taking any prescription or nonprescription drugs, vitamins, and herbal/dietary supplements. Each subject was compensated for participating in the study per TTUHSC IRB approved rate.
Eligible subjects arrived at our clinical facility at 0700 (7:00 am) on the test day after a fast beginning at 2200 (10:00 pm) the previous night. After a brief review of vital signs, the nurse placed an intravenous (IV) line with saline drip in one arm of each subject. A baseline pre-dose (hour 0) blood sample was drawn through the IV line; after that subjects swallowed four Cogni.Q vegicaps with 240 mL of water at hour 0 under direct supervision. Subjects stayed at the clinical facility in their room for the next 12 hours, returning at 24 and 48 hours. Blood was drawn at baseline (hour 0) and at 0.5, 1, 2, 3, 4, 6, 8, 12, 24 and 48 hours after dosing into Vacutainer Blood Collection Tube (Becton-Dickinson, Franklin Lakes, NJ. Product Number: 367874, Sodium heparin was used as anti-coagulant). Water was allowed as desired except for within the first hour after Cogni.Q consumption. All subjects received standardized meals at post-dose hours 4.5 and 9.5 but no food was allowed for at least the first 4 hours post-dose.
Plasma was prepared by centrifuging the heparinized blood at 1000 g for 15 minutes at room temperature. Urine samples (40mL) were collected within time spans of 0–4, 4–8, 8–12 and 12–24 hours (total volume of urine was recorded). All plasma and urine samples were put on dry ice immediately and then stored at -80°C freezer until analysis.
Plasma samples were extracted with a validated solid supported liquid extraction (SLE) method facilitated with a positive pressure manifold (Biotage, Charlotte, NC). Briefly, 100 μL of plasma sample was spiked with 5 μL of 10 ng/μL prednisolone (IS), diluted with 200 μL of LC-MS grade water, mixed and loaded onto ISOLUTE SLE+ 400 μL Array Well cartridges (Biotage, Charlotte, NC). A pulse of minimum positive pressure was applied to facilitate the samples absorption into the cartridges. After the samples were allowed to absorb for 5 min, the compounds were eluted with 2×500 μL tert-butyl methyl ether. The eluent was dried in a Speedvac and the resulting residue was reconstituted in 50 μL of methanol for UHPLC-MS/MS analysis.
Eight-point calibration curves were constructed for D, DA and DOH, at concentrations of 0.1, 0.5, 1, 5, 10, 20, 50 and 100 μg/L for D and DA, and at concentrations of 1, 5, 10, 50, 100, 200, 500 and 1000 μg/L for DOH, respectively. The linear range was 0.1–100 μg/L (0.3–300 nmol/L), 0.1–100 μg/L (0.3–300 nmol/L) and 1–1000 μg/L (4–4000 nmol/L) for D, DA and DOH, respectively. The inter- and intra-assay CV were lower than 6.5% and the accuracy was between 90–105%. Calibration curve was run for each batch of samples analyzed. The mean calibration curve correlation coefficient (r) for D, DA and DOH was 0.999, 0.999 and 0.998, respectively (data from 7–10 calibration curves). In addition, 70% of the plasma samples were extracted and analyzed twice, the data from two replicate analyses were nearly identical and combined for final data analyses and presentation. […]

SMILES: CC(C)=CC(=O)O[C@H]1Cc2cc3ccc(=O)oc3cc2OC1(C)C [D, decursin]
- AUC(0-t) (oral, 4 Cogni.Q vegicaps, subject S10 (185 lb), read-out: AUC0-48h): 46.6 nmol·h/L
- Cmax (oral, 4 Cogni.Q vegicaps, subject S10 (185 lb), read-out: Cmax): 5.7 nM
- half-life (oral, 4 Cogni.Q vegicaps, subject S10 (185 lb), read-out: Terminal t1/2, h (converted)): 13.4 h
- Tmax (oral, 4 Cogni.Q vegicaps, subject S10 (185 lb), read-out: Tmax): 0.5 h
- AUC(0-t) (oral, 4 Cogni.Q vegicaps, subject S11 (178 lb), read-out: AUC0-48h): 14.7 nmol·h/L
- Cmax (oral, 4 Cogni.Q vegicaps, subject S11 (178 lb), read-out: Cmax): 2.5 nM
- half-life (oral, 4 Cogni.Q vegicaps, subject S11 (178 lb), read-out: Terminal t1/2, h (converted)): 20.2 h
- Tmax (oral, 4 Cogni.Q vegicaps, subject S11 (178 lb), read-out: Tmax): 1 h
- AUC(0-t) (oral, 4 Cogni.Q vegicaps, subject S12 (169 lb), read-out: AUC0-48h): 24.8 nmol·h/L
- Cmax (oral, 4 Cogni.Q vegicaps, subject S12 (169 lb), read-out: Cmax): 1.3 nM
- half-life (oral, 4 Cogni.Q vegicaps, subject S12 (169 lb), read-out: Terminal t1/2, h (converted)): 15.7 h
- Tmax (oral, 4 Cogni.Q vegicaps, subject S12 (169 lb), read-out: Tmax): 2 h
- AUC(0-t) (oral, 4 Cogni.Q vegicaps, subject S13 (192 lb), read-out: AUC0-48h): 13.5 nmol·h/L
- Cmax (oral, 4 Cogni.Q vegicaps, subject S13 (192 lb), read-out: Cmax): 1.3 nM
- half-life (oral, 4 Cogni.Q vegicaps, subject S13 (192 lb), read-out: Terminal t1/2, h (converted)): 25.8 h
- Tmax (oral, 4 Cogni.Q vegicaps, subject S13 (192 lb), read-out: Tmax): 0.5 h
- AUC(0-t) (oral, 4 Cogni.Q vegicaps, subject S14 (200 lb), read-out: AUC0-48h): 21.5 nmol·h/L
- Cmax (oral, 4 Cogni.Q vegicaps, subject S14 (200 lb), read-out: Cmax): 8.6 nM
- half-life (oral, 4 Cogni.Q vegicaps, subject S14 (200 lb), read-out: Terminal t1/2, h (converted)): 4.5 h
- Tmax (oral, 4 Cogni.Q vegicaps, subject S14 (200 lb), read-out: Tmax): 1 h
- AUC(0-t) (oral, 4 Cogni.Q vegicaps, subject S15 (177 lb), read-out: AUC0-48h): 23.8 nmol·h/L
- Cmax (oral, 4 Cogni.Q vegicaps, subject S15 (177 lb), read-out: Cmax): 16.8 nM
- half-life (oral, 4 Cogni.Q vegicaps, subject S15 (177 lb), read-out: Terminal t1/2, h (converted)): 26.5 h
- Tmax (oral, 4 Cogni.Q vegicaps, subject S15 (177 lb), read-out: Tmax): 1 h
- Tmax (oral, 4 Cogni.Q vegicaps, subject S16 (175 lb), read-out: Tmax): 3 h
- AUC(0-t) (oral, 4 Cogni.Q vegicaps, subject S17 (147 lb), read-out: AUC0-48h): 53.9 nmol·h/L
- Cmax (oral, 4 Cogni.Q vegicaps, subject S17 (147 lb), read-out: Cmax): 9.8 nM
- half-life (oral, 4 Cogni.Q vegicaps, subject S17 (147 lb), read-out: Terminal t1/2, h (converted)): 22.7 h
- Tmax (oral, 4 Cogni.Q vegicaps, subject S17 (147 lb), read-out: Tmax): 2 h
- half-life (oral, 4 Cogni.Q vegicaps, subject S18 (180 lb), outlier, excluded from means, read-out: Terminal t1/2, h (converted)): 138 h
- AUC(0-t) (oral, 4 Cogni.Q vegicaps, subject S18 (180 lb), read-out: AUC0-48h): 25.8 nmol·h/L
- Cmax (oral, 4 Cogni.Q vegicaps, subject S18 (180 lb), read-out: Cmax): 1.7 nM
- Tmax (oral, 4 Cogni.Q vegicaps, subject S18 (180 lb), read-out: Tmax): 4 h
- AUC(0-t) (oral, 4 Cogni.Q vegicaps, subject S19 (130 lb), read-out: AUC0-48h): 35.7 nmol·h/L
- Cmax (oral, 4 Cogni.Q vegicaps, subject S19 (130 lb), read-out: Cmax): 1.7 nM
- half-life (oral, 4 Cogni.Q vegicaps, subject S19 (130 lb), read-out: Terminal t1/2, h (converted)): 8.5 h
- Tmax (oral, 4 Cogni.Q vegicaps, subject S19 (130 lb), read-out: Tmax): 3 h
- half-life (oral, subject S16 (175 lb), outlier, excluded from means, read-out: Terminal t1/2, h (converted)): 9.4 h
- AUC(0-t) (oral, subject S16 (175 lb), read-out: AUC0-48h): 22.2 nmol·h/L
- Cmax (oral, subject S16 (175 lb), read-out: Cmax): 2.8 nM
- AUC(0-t) (oral, subject S20 (200 lb), read-out: AUC0-48h): 19.1 nmol·h/L
- Cmax (oral, subject S20 (200 lb), read-out: Cmax): 1.3 nM
- half-life (oral, subject S20 (200 lb), read-out: Terminal t1/2, h (converted)): 18.4 h
- Tmax (oral, subject S20 (200 lb), read-out: Tmax): 2 h
- conversion of D/DA to DOH (humans, from plasma AUC0–48h values): > 98%
- AUC(0-t) (male, oral, 4 Cogni.Q vegicaps, Men n=10 (S1 Table), read-out: AUC0-48h, Mean): 28.5 nmol·h/L
- Cmax (male, oral, 4 Cogni.Q vegicaps, Men n=10 (S1 Table), read-out: Cmax, nM, Mean): 5.22 nM
- Tmax (male, oral, 4 Cogni.Q vegicaps, Men n=10 (S1 Table), read-out: Tmax, h, Mean): 1.7 h
- half-life (male, oral, Men, outliers excluded (S1 Table), read-out: Terminal t1/2, h, Mean (converted)): 17.7 h
- AUC(0-t) (male, po, Men N = 10, single oral dose Cogni.Q, read-out: AUC0–48h, h.nmol/L Mean (SD)): 28.5 nmol·h/L
- Cmax (male, po, Men N = 10, single oral dose Cogni.Q, read-out: Cmax, nmol/L, Mean (SD)): 5.2 nM
- Tmax (male, po, Men N = 10, single oral dose Cogni.Q, read-out: Tmax, h, Mean (SD)): 1.7 h
- half-life (male, po, Men, outlier subjects excluded, single oral dose Cogni.Q, read-out: T1/2, h, terminal Mean (SD) (converted)): 17.7 h
